The source of these data is EP2108954A1, “A test system for detecting intracellular cyclic nucleotide level and methods and uses thereof” (Max-Planck-Gesellschaft zur Förderung der Wissenschaften …, priority 2008, dated 2009).

For assay [1], the target named is T1, Or22a and Or83b (Drosophila melanogaster, UniProt P81909+Q9VNB5).
T1 construct: expressed in transfected cells; host or cells: HEK293
T1 sequence (P81909 1-397): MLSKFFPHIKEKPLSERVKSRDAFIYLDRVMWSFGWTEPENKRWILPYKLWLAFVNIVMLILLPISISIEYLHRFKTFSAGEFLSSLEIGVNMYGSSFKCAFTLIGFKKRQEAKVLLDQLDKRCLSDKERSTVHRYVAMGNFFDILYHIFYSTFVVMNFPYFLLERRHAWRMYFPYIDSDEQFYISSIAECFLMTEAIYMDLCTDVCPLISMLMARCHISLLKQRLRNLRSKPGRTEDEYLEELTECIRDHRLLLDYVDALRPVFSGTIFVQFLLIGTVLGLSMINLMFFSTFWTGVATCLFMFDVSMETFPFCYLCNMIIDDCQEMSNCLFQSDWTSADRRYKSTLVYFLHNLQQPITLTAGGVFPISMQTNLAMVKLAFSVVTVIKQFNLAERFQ
T1 sequence (Q9VNB5 1-486): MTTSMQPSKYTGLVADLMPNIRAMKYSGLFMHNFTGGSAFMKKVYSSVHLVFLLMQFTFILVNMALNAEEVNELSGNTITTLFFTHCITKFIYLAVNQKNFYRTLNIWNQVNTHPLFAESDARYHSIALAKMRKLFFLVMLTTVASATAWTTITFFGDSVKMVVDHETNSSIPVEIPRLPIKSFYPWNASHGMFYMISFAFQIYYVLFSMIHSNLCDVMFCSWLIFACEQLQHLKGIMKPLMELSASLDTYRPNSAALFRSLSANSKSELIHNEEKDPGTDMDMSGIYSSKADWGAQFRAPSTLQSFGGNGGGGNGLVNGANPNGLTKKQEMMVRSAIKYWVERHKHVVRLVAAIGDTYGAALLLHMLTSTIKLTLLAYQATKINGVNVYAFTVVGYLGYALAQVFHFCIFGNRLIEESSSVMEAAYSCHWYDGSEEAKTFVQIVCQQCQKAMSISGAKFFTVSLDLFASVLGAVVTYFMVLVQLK
As to the kind of experiment: Outside-out patch recording from HEK293 cells coexpressing Or22a and Or83b. In kind it is cell-based. The note with it: Etb 100 nM, 1 s, -60 mV; for Ii Peak size / Ii Peak time / Ii Recov. / Im Latency / Im Peak size / Im Peak time / Im Recov.: Or22a C-terminal GFP fusion protein. The procedure:
(§1) HEK293 cells were cultured as described by Wicher and colleagues (Wicher et al., J. Biol. Chem. 281, 3227-36 (2006)). In brief, HEK293 cells were cultured at a density of ∼2*10^4 per 35-mm dish and transfected with 1 µg pcDNA3-DOR22a-GFP and 1 µg pcDNA3-DOR83b-GFP (Neuhaus, et al., Nat. Neurosci. 8, 15-17 (2005); DNAs were a generous gift of Dr. E. Neuhaus and Dr. H. Hatt) using Roti-Fect transfection kit (Roth, Karlsruhe, Germany). In some experiments we transfected cells with pcDNA3-DOR22a-GFP or pcDNA3-DOR83b-GFP alone. We also examined the properties of DOR47a, which was cloned, using standard molecular biology methods into a pcDNA3.1(-) expression vector. To test for putative G-protein coupling, cells were transfected with the respective OR-DNA together with 1.5 µg hHCN2/pcDNA3 (provided by M. Biel, Munich, Germany), with 1 µg hKCNQ4/pcDNA3.1 or with 1 µg hCNGA2/pCMV6-XL4 (Origene, Rockville, MD, USA).
(§2) Ion currents in HEK293 cells were measured with the patch-clamp technology as described (Wicher et al, J. Biol. Chem. 281, 3227-36 (2006)). In brief, ion currents in HEK293 cells were measured at room temperature using whole-cell patch-clamp with appropriate compensation of series resistance and of capacitive currents. Additional experiments were performed in the outside-out configuration. Current measurements and data acquisition were performed using an EPC9 patch-clamp amplifier controlled by PatchMaster software (both HEKA Elektronik, Lambrecht, Germany). Patch-clamp pipettes were fabricated from borosilicate capillaries. Pipettes for whole-cell recordings had resistances of 2-4 MΩ for excised-patch recordings the pipette resistance was up to 15 MΩ.
The standard pipette solution contained (in mM) 140 KCl, 4 NaCl, 2.2 CaCl2, 2 Mg-ATP, 0.05 Na-GTP, 5 EGTA, 10 HEPES (pH 7.3), and the standard bath solution contained (in mM) 135 NaCl, 5 KCI, 1 CaCl2, 1 MgCl2, 10 HEPES, 10 glucose (pH 7.4). To differentiate between ionotropic and metabotropic pathways of receptor activation (Fig. 2a-d) the pipette solution contained either 2 mM ATP plus 2 mM GTP or 2 mM ADP plus 2 mM GDP (both for whole-cell and outside-out configuration). For the preparation of Cl^--free solutions the chloride salts were substituted by gluconate salts. The pipette Cs^+ solution contained (in mM) 140 CsCl, 1 Mg-ATP, 10 EGTA, 10 HEPES (pH = 7.3), and the Cs^+ bath solution contained (in mM) 140 CsCl, 15 glucose, 15 HEPES (pH = 7.4). The Ca^2+-free bath solution contained (in mM) 140 NaCl, 15 glucose, 15 HEPES, and the Na^+-free bath solution contained (in mM) 140 NMDG-Cl, 10 CaCl2, 10 glucose, 15 HEPES.
With the exception of GDP-γ-S, which was applied via the patch pipette, all substances were applied to the bath using either a bath perfusion system (BPS4 from ALA, New York, USA) or a rapid solution changer (RSC160 from Biologic, Claix, France) which were controlled by the PatchMaster software (HEKA Elektronik).

In a further assay the test system is hKCNQ4. As to the kind of experiment: Gq coupling test: KCNQ4 current in HEK293 cells coexpressing Or22a, Or83b and hKCNQ4. In kind it is cell-based, human. The note with it: increasing Etb concentrations; +40 mV. The protocol:
as §1
(§3) Ion currents in HEK293 cells were measured with the patch-clamp technology as described (Wicher et al, J. Biol. Chem. 281, 3227-36 (2006)). In brief, ion currents in HEK293 cells were measured at room temperature using whole-cell patch-clamp with appropriate compensation of series resistance and of capacitive currents. Additional experiments were performed in the outside-out configuration. […]

In the next assay the test system is hCNGA2. The experiment in a line: Gs coupling test: hCNGA2 whole-cell current in HEK293 cells. Format: cell-based, human. The protocol: as §1, §2
Assay [2] deals with T1, Or22a and Or83b. The experiment in a line: Radioreceptor assay of cAMP content of HEK293 cells expressing Or22a and Or83b. In kind it is cell-based. Conditions: 100 nM Etb for 15 min; n = 3 experiments; control 1.28 ± 0.06. The procedure: Monolayers of HEK293 cells were incubated for 30 min in HEPES Ringer's buffer containing 1 mM isobutylmethylxanthine and stimulated with 100 nM Etb for 15 min. The reaction was stopped with 96% ethanol, and after evaporation, 50 mM Tris/4 mM EDTA (pH 7.5) was added.

Another assay deals with T2, Or22a (Drosophila melanogaster, UniProt P81909).
T2 construct: expressed in transfected cells; host or cells: HEK293
T2 sequence (P81909 1-397): T1 sequence (P81909 1-397)
As to the kind of experiment: Whole-cell patch-clamp of HEK293 cells expressing Or22a alone. Format: cell-based. Conditions: HEK293 cells transfected with Or22a alone, -60 mV, n = 6. The procedure: as §1, §3
On the technique in general: Patch clamp records ionic current or voltage across a cell membrane.

Structures are written as SMILES. Entries after “also recorded” stand apart in the source; their conditions may differ.

Broadly, the EC50 is the concentration at which the effect is half-maximal.

In the case of `CCCC(=O)OCC` [Etb, ethyl butyrate], the “latency of Ii” value on Or22a and Or83b [1] is listed as < 0.5 s. In addition, at Or22a and Or83b [1] (ADP and GDP (-)), the “Ii Peak size” value stood at 1.6 ± 0.3 pA, the “Ii Peak time” value is given as 1.38 ± 0.23 s, the “Ii Recov.” value was 4.5 ± 1.2 s and the “Im Latency” value was 11 ± 3 s. On Or22a and Or83b [1] (ADP and GDP (-)), the “Im Peak size” value was found to be 0.5 ± 0.2 pA, the “Im Peak time” value is recorded as 36 ± 8 s and the “Im Recov.” value is reported as 58 ± 9 s. On Or22a and Or83b [1] (ATP and GTP (+)), the “Ii Peak size” value worked out at 1.3 ± 0.3 pA, the “Ii Peak time” value turned out to be 1.13 ± 0.11 s, the “Ii Recov.” value amounted to 5.2 ± 1.1 s and the “Im Latency” value was determined as 10 ± 2 s. For the same compound, on Or22a and Or83b [1] (ATP and GTP (+)), the “Im Peak size” value turned out to be 1.7 ± 0.4 pA, the “Im Peak time” value is 33 ± 4 s and the “Im Recov.” value amounted to 45 ± 7 s. Also, in the assay on hKCNQ4, the “effect on KCNQ4 current” value was “remains unaffected; also recorded: had no effect”. Besides, the “effect on CNGA2 current” value in the assay on hCNGA2 (cells expressing Or22a plus Or83b or Or22a alone) is “concentration-dependent rise in CNGA2 current”. In addition, the “Hill coefficient of Etb-induced currents” value in the assay with hCNGA2 (cells expressing hCNGA2 and Or22a, -80 mV, n = 5) is reported as 0.54. Moreover, the EC50 in the assay with hCNGA2 (cells expressing hCNGA2 and Or22a, -80 mV, normalized to controls, n = 5, read-out: EC50 of Etb-induced currents) came out at 3 nM. Also, the “response of hCNGA2 current” value in the assay on hCNGA2 (cells solely expressing CNGA2, Etb 100 nM, forskolin 10 µM, -80 mV) is “did not respond”. On Or22a and Or83b [2], this compound came in with a cAMP level of 1.65 ± 0.10 pmol/mg protein. Moreover, on Or22a, the “inward current upon short Etb application” value was “no current was observed”.
